Assay results reported in PubChem BioAssay AID2060626 (Molecular Pharmacology Branch, DTP, NCI, 2025).
pIC50: −log10 of the molar value. Blank lines part the entries; values can stand above or below the compound they belong to.

Tested on: 168753-222-R-J1-PDC complex spheroid viability
Assay: Anticancer human tumor 168753-222-R-J1-PDC patient-derived bladder carcinoma cell line growth inhibition [CLK]
Settings: for pIC50: curve of first compound; for viability, T/C: stronger effect = lower value
How it was run: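 Patient-derived tumor cells grown as complex spheroids with HUVEC endothelial cells and mesenchymal stem cells, treated with drug combinations. Concentrations descend in half-log steps from near clinical Cmax, or from 10 microM if Cmax unknown.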

[1] = second compound 0.0316 µM, first compound 0.0316 µM
[2] = second compound 0.0316 µM, first compound 0.1 µM
[3] = second compound 0.0316 µM, first compound 0.316 µM
[4] = second compound 0.0316 µM, first compound 1 µM
[5] = second compound 0.0316 µM, first compound 3.16 µM
[6] = second compound 0.0316 µM, first compound 10 µM
[7] = second compound 0.1 µM, first compound 0.0316 µM
[8] = second compound 0.1 µM, first compound 0.1 µM
[9] = second compound 0.1 µM, first compound 0.316 µM
[10] = second compound 0.1 µM, first compound 1 µM
[11] = second compound 0.1 µM, first compound 3.16 µM
[12] = second compound 0.1 µM, first compound 10 µM
[13] = second compound 0.316 µM, first compound 0.0316 µM
[14] = second compound 0.316 µM, first compound 0.1 µM
[15] = second compound 0.316 µM, first compound 0.316 µM
[16] = second compound 0.316 µM, first compound 1 µM
[17] = second compound 0.316 µM, first compound 3.16 µM
[18] = second compound 0.316 µM, first compound 10 µM
[19] = second compound 1 µM, first compound 0.0316 µM
[20] = second compound 1 µM, first compound 0.1 µM
[21] = second compound 1 µM, first compound 0.316 µM
[22] = second compound 1 µM, first compound 1 µM
[23] = second compound 1 µM, first compound 3.16 µM
[24] = second compound 1 µM, first compound 10 µM
[25] = second compound 3.16 µM, first compound 0.0316 µM
[26] = second compound 3.16 µM, first compound 0.1 µM
[27] = second compound 3.16 µM, first compound 0.316 µM
[28] = second compound 3.16 µM, first compound 1 µM
[29] = second compound 3.16 µM, first compound 3.16 µM
[30] = second compound 3.16 µM, first compound 10 µM
[31] = second compound 10 µM, first compound 0.0316 µM
[32] = second compound 10 µM, first compound 0.1 µM
[33] = second compound 10 µM, first compound 0.316 µM
[34] = second compound 10 µM, first compound 1 µM
[35] = second compound 10 µM, first compound 3.16 µM
[36] = second compound 10 µM, first compound 10 µM
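Note: viability measured after seven days of drug exposure.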
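Throughout, for viability, T/C: luminescence signal used as surrogate for viable cell amount; 100% = DMSO vehicle control wells.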

- pIC50 (second compound 0.0316 µM): < 5.00
- pIC50 (second compound 0.1 µM): < 5.00
- pIC50 (second compound 0.316 µM): 5.29
- pIC50 (second compound 1 µM): > 7.50
- pIC50 (second compound 3.16 µM): > 7.50
- pIC50 (second compound 10 µM): > 7.50
Structure (SMILES): C#Cc1c(F)ccc2cc(O)cc(-c3ncc4c(N5CC6CCC(C5)N6)nc(OCC56CCCN5CC(F)C6)nc4c3F)c12 (centres undefined) + CNC(=O)c1ccc(Nc2nc(OC3CCCC3)c3c(-c4ccc5nc(C)oc5c4)c[nH]c3n2)c(OC)c1
- viability, T/C [1]: 106%
- viability, T/C [2]: 99.4%
- viability, T/C [3]: 107%
- viability, T/C [4]: 99.2%
- viability, T/C [5]: 105%
- viability, T/C [6]: 73.1%
- viability, T/C [7]: 99.1%
- viability, T/C [8]: 103%
- viability, T/C [9]: 101%
- viability, T/C [10]: 101%
- viability, T/C [11]: 90.1%
- viability, T/C [12]: 73%
- viability, T/C [13]: 86%
- viability, T/C [14]: 74.3%
- viability, T/C [15]: 78.5%
- viability, T/C [16]: 78.2%
- viability, T/C [17]: 67.9%
- viability, T/C [18]: 25.6%
- viability, T/C [19]: 42.3%
- viability, T/C [20]: 39.9%
- viability, T/C [21]: 36.7%
- viability, T/C [22]: 22.7%
- viability, T/C [23]: 30.4%
- viability, T/C [24]: 16.9%
- viability, T/C [25]: 28.7%
- viability, T/C [26]: 21.7%
- viability, T/C [27]: 20%
- viability, T/C [28]: 17.7%
- viability, T/C [29]: 18.4%
- viability, T/C [30]: 16.2%
- viability, T/C [31]: 17.1%
- viability, T/C [32]: 21.5%
- viability, T/C [33]: 18.6%
- viability, T/C [34]: 14.8%
- viability, T/C [35]: 11.7%
- viability, T/C [36]: 11.3%

- pIC50 (second compound 0.0316 µM): < 5.00
- pIC50 (second compound 0.1 µM): < 5.00
- pIC50 (second compound 0.316 µM): < 5.00
- pIC50 (second compound 1 µM): > 7.50
- pIC50 (second compound 3.16 µM): > 7.50
- pIC50 (second compound 10 µM): > 7.50
Structure (SMILES): CC(CO)NC(=O)c1cc(-c2ccc(Cl)cc2)nn(-c2cnn(C)c2)c1=O (centres undefined) + CNC(=O)c1ccc(Nc2nc(OC3CCCC3)c3c(-c4ccc5nc(C)oc5c4)c[nH]c3n2)c(OC)c1
- viability, T/C [1]: 117%
- viability, T/C [2]: 99.4%
- viability, T/C [3]: 94.4%
- viability, T/C [4]: 97.2%
- viability, T/C [5]: 97.2%
- viability, T/C [6]: 88.2%
- viability, T/C [7]: 102%
- viability, T/C [8]: 99.6%
- viability, T/C [9]: 85.7%
- viability, T/C [10]: 96.7%
- viability, T/C [11]: 95%
- viability, T/C [12]: 85.1%
- viability, T/C [13]: 79.1%
- viability, T/C [14]: 76.8%
- viability, T/C [15]: 74.6%
- viability, T/C [16]: 77.2%
- viability, T/C [17]: 80.5%
- viability, T/C [18]: 66.8%
- viability, T/C [19]: 48.9%
- viability, T/C [20]: 51.3%
- viability, T/C [21]: 44%
- viability, T/C [22]: 32.6%
- viability, T/C [23]: 55.4%
- viability, T/C [24]: 53.1%
- viability, T/C [25]: 24.6%
- viability, T/C [26]: 37%
- viability, T/C [27]: 39.2%
- viability, T/C [28]: 28%
- viability, T/C [29]: 39.4%
- viability, T/C [30]: 35.2%
- viability, T/C [31]: 18.5%
- viability, T/C [32]: 26.8%
- viability, T/C [33]: 27.3%
- viability, T/C [34]: 22.2%
- viability, T/C [35]: 30%
- viability, T/C [36]: 27.7%
